According to patent US20030236257A1, “Polycyclic aryl and heteroaryl substituted 4-pyridones useful for selective inhibition of the cogulation cascade” (priority 2003, published 2003):

Tests used:
Assay type in all cases: biochemical
[1] = molecular target: T1, TF-VIIa (recombinant soluble tissue factor and recombinant human factor VIIa) (Homo sapiens, UniProt P08709); test: TF-VIIa Assay; settings: chromogenic substrate, 60 min at room temperature, OD 405 nm; read-out: IC50 or % Inhibition TF-VIIa (30 µM): IC50
T1 construct: purchased American Diagnostica, Greenwich; host or cells: soluble TF made in house in E. coli
T1 sequence (P08709 213-466 limits assumed): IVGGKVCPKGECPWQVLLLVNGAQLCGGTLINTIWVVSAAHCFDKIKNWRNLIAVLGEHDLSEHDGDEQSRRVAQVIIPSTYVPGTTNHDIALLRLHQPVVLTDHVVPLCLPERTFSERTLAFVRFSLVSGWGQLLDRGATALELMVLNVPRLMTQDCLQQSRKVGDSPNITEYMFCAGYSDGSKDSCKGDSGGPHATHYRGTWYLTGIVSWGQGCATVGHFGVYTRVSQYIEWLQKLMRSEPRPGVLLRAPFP
T1 sequence (P08709 61-212 partner limits assumed): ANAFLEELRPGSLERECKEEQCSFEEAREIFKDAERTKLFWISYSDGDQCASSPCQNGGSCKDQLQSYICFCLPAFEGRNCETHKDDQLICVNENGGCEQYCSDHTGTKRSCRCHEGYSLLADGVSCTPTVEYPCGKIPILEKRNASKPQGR
T1 sequence (P13726 33-251 partner limits assumed): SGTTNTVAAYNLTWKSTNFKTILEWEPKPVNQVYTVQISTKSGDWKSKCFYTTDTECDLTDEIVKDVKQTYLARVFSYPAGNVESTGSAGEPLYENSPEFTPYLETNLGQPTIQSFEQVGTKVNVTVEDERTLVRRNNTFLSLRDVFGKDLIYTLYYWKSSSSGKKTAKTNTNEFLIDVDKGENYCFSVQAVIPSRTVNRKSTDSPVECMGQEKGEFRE
Method: (§1) In this assay 100 nM recombinant soluble tissue factor and 2 nM recombinant human factor VIIa are added to a 96-well assay plate containing 0.4 mM of the substrate, N-Methylsulfonyl-D-phe-gly-arg-p-nitroaniline and either inhibitor or buffer (5 mM CaCl2, 50 mM Tris-HCl, pH 8.0, 100 mM NaCl, 0.1% BSA). The reaction, in a final volume of 100 ul is measured immediately at 405 nm to determine background absorbance. The plate is incubated at room temperature for 60 min, at which time the rate of hydrolysis of the substrate is measured by monitoring the reaction at 405 nm for the release of p-nitroaniline. Percent inhibition of TF-VIIa activity is calculated from OD405nm value from the experimental and control sample.
(§2) Recombinant soluble TF, consisting of amino acids 1-219 of the mature protein sequence was expressed in E. coli and purified using a Mono Q Sepharose FPLC. Recombinant human […] was purchased from American Diagnostica, Greenwich Cr and chromogenic substrate N-Methylsulfonyl-D-phe-gly-arg-pnitroaniline was prepared by American Peptide Company, Inc., Sunnyvale, Calif. Factor Xa was obtained from Enzyme Research Laboratories, South Bend IN, thrombin from Calbiochem, La Jolla, Calif., and trypsin and L-BAPNA from Sigma, St. Louis Mo. The chromogenic substrates S-2765 and S-2238 were purchased from Chromogenix, Sweden.

[2] = molecular target: T2, human factor Xa (Homo sapiens, UniProt P00742); test: Xa Assay; settings: read-out: IC50 or % Inhibition Factor Xa (30 µM): % inhibition
T2 construct: purchased Enzyme Research Laboratories, South Bend IN
T2 sequence (P00742 235-488 limits assumed): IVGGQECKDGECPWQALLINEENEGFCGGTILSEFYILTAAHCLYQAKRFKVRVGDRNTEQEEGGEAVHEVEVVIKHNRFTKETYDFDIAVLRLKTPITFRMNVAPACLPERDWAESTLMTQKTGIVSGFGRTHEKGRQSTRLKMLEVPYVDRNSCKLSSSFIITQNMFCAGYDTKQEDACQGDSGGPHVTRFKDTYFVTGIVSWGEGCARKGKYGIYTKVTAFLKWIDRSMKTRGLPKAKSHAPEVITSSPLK
T2 sequence (P00742 41-179 partner limits assumed): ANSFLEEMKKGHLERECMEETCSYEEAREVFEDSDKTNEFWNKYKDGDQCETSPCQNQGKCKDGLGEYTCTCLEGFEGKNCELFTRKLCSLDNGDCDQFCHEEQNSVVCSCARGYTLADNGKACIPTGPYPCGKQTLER
Method: as §1, with “0.3” for “In this assay 100”, “nM” for “nM recombinant soluble tissue factor and 2 nM recombinant”, “Xa and 0.15 mM N-a-Benzyloxycarbonyl-D-arginyl-L-glycyl-L-arginne-nitroaniline-dihydrochloride (S-2765)” for “VIIa”, “containing” for “containing 0.4 mM of the substrate, N-Methylsulfonyl-D-phe-gly-arg-p-nitroaniline and”, “(50” for “(5 mM CaCl2, 50”, “Xa” for “TF-VIIa”
as §2

[3] = molecular target: human thrombin (Homo sapiens, UniProt P00734); test: Thrombin Assay
Method: 0.28 nM human thrombin and 0.06 mM H-D-Phenylalanyl-L-pipecolyl-L, arginine-nitroaniline, dihydrochloride are added to a 96-well assay plate containing either inhibitor or buffer (50 mM Tris-HCl, pH 8.0, 100 mM NaCl, 0.1% BSA). The reaction, in a final volume of 100 ul is measured immediately at 405 nm to determine background absorbance. The plate is incubated at room temperature for 60 min, at which time the rate of hydrolysis of the substrate is measured by monitoring the reaction at 405 nm for the release of pnitroaniline. Percent inhibition of thrombin activity is calculated from OD405nm value from the experimental and control sample.
as §2

[4] = molecular target: T3, trypsin, type IX from porcine pancreas (Sus scrofa, UniProt P00761); test: Trypsin Assay; settings: chromogenic substrate L-BAPNA, 60 min at room temperature, OD 405 nm; read-out: IC50 or % Inhibition Trpysin II (30 µM): IC50
T3 construct: purchased Sigma, St. Louis Mo; host or cells: porcine pancreas
T3 sequence (P00761 9-231): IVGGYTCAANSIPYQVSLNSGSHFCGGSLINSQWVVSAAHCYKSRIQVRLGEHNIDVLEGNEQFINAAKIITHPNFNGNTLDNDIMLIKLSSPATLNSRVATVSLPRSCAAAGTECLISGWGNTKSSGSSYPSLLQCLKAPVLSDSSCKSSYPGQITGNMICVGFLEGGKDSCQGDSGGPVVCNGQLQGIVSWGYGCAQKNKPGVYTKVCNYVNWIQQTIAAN
Method: 5 ug/ml trypsin, type IX from porcine pancreas and 0.375 mM N-α-Benzoyl-L-arginine-p-nitroanilide (LBAPNA) are added to a 96-well assay plate containing either inhibitor or buffer (50 mM Tris-HCl, pH 8.0, 100 mM NaCl, 0.1% BSA). The reactions, in a final volume of 100 ul are measured immediately at 405 nm to determine background absorbance. The plate is incubated at room temperature for 60 min, at which time the rate of hydrolysis of the substrate is measured by monitoring the reaction at 405 nm for the release of p-nitroaniline. Percent inhibition of trypsin activity is calculated from OD405nm value from the experimental and control sample.
as §2

| SMILES | IC50 [1] | inhibition at 100 µM [2] | IC50 ([3]; chromogenic substrate, 60 min at room temperature, OD 405 nm, read-out: IC50 or % Inhibition Thrombin (30 µM): IC50) | IC50 [4] | inhibition at 100 µM ([3]; at 100 μM, read-out: IC50 or % Inhibition Thrombin (30 µM): % inhibition) |
| --- | --- | --- | --- | --- | --- |
| CC(C)Nc1cn(C)c(-c2cccc(N)c2)c(CC(=O)NCc2ccc(C(=N)N)cc2)c1=O [Example 1] | 280 nM | 32% | 100000 nM | 33 nM |  |
| CCCn1cc(NC(C)C)c(=O)c(CC(=O)NCc2ccc(C(=N)N)cc2)c1-c1cccc(N)c1 [Example 2] | 560 nM | 34% |  | 151 nM | 45% |
